# Test results published in PubChem BioAssay (NCI).
#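 Cells were grown in 96-well plates and exposed to each compound for 48 hours at five concentrations; endpoints were interpolated linearly between bracketing concentrations, or set to the highest concentration if not reached. Abbreviation: GI50, concentration required for 50% inhibition of growth. TGI marks complete inhibition of growth.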
# Experiments:
# Assay in all cases: growth of human tumour cells (NCI), 48 h
# 786-0 renal = system: 786-0 renal
# A498 renal = system: A498 renal
# A549 NSCLC = system: A549 NSCLC
# ACHN renal = system: ACHN renal
# BT-549 breast = system: BT-549 breast
# CAKI-1 renal = system: CAKI-1 renal
# CCRF-CEM leukemia = system: CCRF-CEM leukemia
# COLO 205 colon = system: COLO 205 colon
# DU-145 prostate = system: DU-145 prostate
# EKVX NSCLC = system: EKVX NSCLC
# HCC-2998 colon = system: HCC-2998 colon
# HCT-116 colon = system: HCT-116 colon
# HCT-15 colon = system: HCT-15 colon
# HL-60(TB) leukemia = system: HL-60(TB) leukemia
# HOP-62 NSCLC = system: HOP-62 NSCLC
# HS 578T breast = system: HS 578T breast
# HT29 colon = system: HT29 colon
# IGROV1 ovarian = system: IGROV1 ovarian
# K-562 leukemia = system: K-562 leukemia
# KM12 colon = system: KM12 colon
# LOX IMVI melanoma = system: LOX IMVI melanoma
# M14 melanoma = system: M14 melanoma
# MALME-3M melanoma = system: MALME-3M melanoma
# MCF7 breast = system: MCF7 breast
# MDA-MB-231 breast = system: MDA-MB-231 breast
# MDA-MB-435 = system: MDA-MB-435
# MOLT-4 leukemia = system: MOLT-4 leukemia
# NCI-H226 lung = system: NCI-H226 lung
# NCI-H23 lung = system: NCI-H23 lung
# NCI-H460 lung = system: NCI-H460 lung
# NCI-H522 lung = system: NCI-H522 lung
# NCI/ADR-RES ovarian = system: NCI/ADR-RES ovarian
# OVCAR-3 ovarian = system: OVCAR-3 ovarian
# OVCAR-4 ovarian = system: OVCAR-4 ovarian
# OVCAR-5 ovarian = system: OVCAR-5 ovarian
# OVCAR-8 ovarian = system: OVCAR-8 ovarian
# PC-3 prostate = system: PC-3 prostate
# RPMI-8226 leukemia = system: RPMI-8226 leukemia
# RXF 393 renal = system: RXF 393 renal
# SF-268 CNS = system: SF-268 CNS
# SF-295 CNS = system: SF-295 CNS
# SF-539 CNS = system: SF-539 CNS
# SK-MEL-2 melanoma = system: SK-MEL-2 melanoma
# SK-MEL-28 melanoma = system: SK-MEL-28 melanoma
# SK-MEL-5 melanoma = system: SK-MEL-5 melanoma
# SK-OV-3 ovarian = system: SK-OV-3 ovarian
# SN12C renal = system: SN12C renal
# SNB-19 CNS = system: SNB-19 CNS
# SNB-75 CNS = system: SNB-75 CNS
# SR leukemia = system: SR leukemia
# SW-620 colon = system: SW-620 colon
# T-47D breast = system: T-47D breast
# TK-10 renal = system: TK-10 renal
# U251 CNS = system: U251 CNS
# UACC-257 melanoma = system: UACC-257 melanoma
# UACC-62 melanoma = system: UACC-62 melanoma
# UO-31 renal = system: UO-31 renal
# HOP-92 NSCLC = system: HOP-92 NSCLC
smiles,measurement,setting,value
COc1cccc(C2C3=C(COC3=O)N(CCO)c3cc4c(cc32)OCO4)c1 (centres undefined),GI50,786-0 renal,370 nM
same,TGI,786-0 renal,> 50 µM
same,GI50,A498 renal,263 nM
same,TGI,A498 renal,5.1 µM
same,GI50,A549 NSCLC,631 nM
same,TGI,A549 NSCLC,> 50 µM
same,GI50,ACHN renal,3.92 µM
same,TGI,ACHN renal,> 50 µM
same,GI50,BT-549 breast,450 nM
same,TGI,BT-549 breast,> 45.1 µM
same,GI50,CAKI-1 renal,449 nM
same,TGI,CAKI-1 renal,> 50 µM
same,GI50,CCRF-CEM leukemia,274 nM
same,TGI,CCRF-CEM leukemia,> 50 µM
same,GI50,COLO 205 colon,191 nM
same,TGI,COLO 205 colon,854 nM
same,GI50,DU-145 prostate,388 nM
same,GI50,EKVX NSCLC,1030 nM
same,TGI,EKVX NSCLC,> 50 µM
same,GI50,HCC-2998 colon,211 nM
same,TGI,HCC-2998 colon,1200 nM
same,GI50,HCT-116 colon,235 nM
same,TGI,HCT-116 colon,> 16.1 µM
same,GI50,HCT-15 colon,1020 nM
same,TGI,HCT-15 colon,> 50 µM
same,GI50,HL-60(TB) leukemia,132 nM
same,TGI,HL-60(TB) leukemia,352 nM
same,GI50,HOP-62 NSCLC,598 nM
same,TGI,HOP-62 NSCLC,> 50 µM
same,GI50,HS 578T breast,251 nM
same,TGI,HS 578T breast,45.2 µM
same,GI50,HT29 colon,154 nM
same,TGI,HT29 colon,1580 nM
same,GI50,IGROV1 ovarian,154 nM
same,TGI,IGROV1 ovarian,1640 nM
same,GI50,K-562 leukemia,155 nM
same,TGI,K-562 leukemia,> 18.7 µM
same,GI50,KM12 colon,192 nM
same,GI50,LOX IMVI melanoma,451 nM
same,TGI,LOX IMVI melanoma,> 50 µM
same,GI50,M14 melanoma,250 nM
same,TGI,M14 melanoma,> 11 µM
same,TGI,MALME-3M melanoma,> 50 µM
same,GI50,MCF7 breast,185 nM
same,TGI,MCF7 breast,> 50 µM
same,GI50,MDA-MB-231 breast,1280 nM
same,TGI,MDA-MB-231 breast,45.8 µM
same,GI50,MDA-MB-435,101 nM
same,TGI,MDA-MB-435,356 nM
same,GI50,MOLT-4 leukemia,315 nM
same,TGI,MOLT-4 leukemia,> 16.7 µM
same,GI50,NCI-H226 lung,23.2 µM
same,TGI,NCI-H226 lung,> 50 µM
same,GI50,NCI-H23 lung,589 nM
same,TGI,NCI-H23 lung,> 14.2 µM
same,GI50,NCI-H460 lung,189 nM
same,GI50,NCI-H522 lung,51 nM
same,TGI,NCI-H522 lung,187 nM
same,GI50,NCI/ADR-RES ovarian,341 nM
same,TGI,NCI/ADR-RES ovarian,2720 nM
same,GI50,OVCAR-3 ovarian,121 nM
same,TGI,OVCAR-3 ovarian,286 nM
same,GI50,OVCAR-4 ovarian,2320 nM
same,TGI,OVCAR-4 ovarian,> 50 µM
same,GI50,OVCAR-5 ovarian,2030 nM
same,TGI,OVCAR-5 ovarian,> 50 µM
same,GI50,OVCAR-8 ovarian,1190 nM
same,TGI,OVCAR-8 ovarian,> 50 µM
same,GI50,PC-3 prostate,265 nM
same,TGI,PC-3 prostate,> 50 µM
same,GI50,RPMI-8226 leukemia,706 nM
same,TGI,RPMI-8226 leukemia,> 50 µM
same,GI50,RXF 393 renal,99.4 nM
same,TGI,RXF 393 renal,352 nM
same,GI50,SF-268 CNS,1530 nM
same,TGI,SF-268 CNS,49.2 µM
same,GI50,SF-295 CNS,157 nM
same,GI50,SF-539 CNS,360 nM
same,GI50,SK-MEL-2 melanoma,142 nM
same,TGI,SK-MEL-2 melanoma,430 nM
same,GI50,SK-MEL-28 melanoma,> 50 µM
same,TGI,SK-MEL-28 melanoma,> 50 µM
same,GI50,SK-MEL-5 melanoma,177 nM
same,TGI,SK-MEL-5 melanoma,> 50 µM
same,GI50,SK-OV-3 ovarian,289 nM
same,TGI,SK-OV-3 ovarian,> 13.8 µM
same,TGI,SN12C renal,> 50 µM
same,TGI,SNB-19 CNS,> 10.6 µM
same,GI50,SNB-75 CNS,151 nM
same,TGI,SNB-75 CNS,1070 nM
same,GI50,SR leukemia,79.5 nM
same,TGI,SR leukemia,227 nM
same,GI50,SW-620 colon,229 nM
same,TGI,SW-620 colon,> 50 µM
same,GI50,T-47D breast,263 nM
same,TGI,T-47D breast,> 50 µM
same,GI50,TK-10 renal,725 nM
same,GI50,U251 CNS,269 nM
same,TGI,U251 CNS,> 50 µM
same,GI50,UACC-257 melanoma,124 nM
same,TGI,UACC-257 melanoma,> 50 µM
same,TGI,UACC-62 melanoma,> 50 µM
same,GI50,UO-31 renal,297 nM
same,TGI,UO-31 renal,> 50 µM
O=S(=O)(O)Oc1cc2c(c(OS(=O)(=O)O)c1)C[C@H](OS(=O)(=O)O)[C@@H](c1ccc(OS(=O)(=O)O)c(OS(=O)(=O)O)c1)O2,TGI,A549 NSCLC,> 100 µM
same,TGI,ACHN renal,> 100 µM
same,TGI,BT-549 breast,> 100 µM
same,TGI,COLO 205 colon,> 100000 nM
same,TGI,EKVX NSCLC,> 100 µM
same,TGI,HCT-15 colon,> 100 µM
same,TGI,HOP-62 NSCLC,> 100 µM
same,TGI,HOP-92 NSCLC,> 100 µM
same,TGI,HS 578T breast,> 100 µM
same,TGI,HT29 colon,> 100000 nM
same,TGI,IGROV1 ovarian,> 100000 nM
same,TGI,LOX IMVI melanoma,> 100 µM
same,TGI,M14 melanoma,> 100 µM
same,TGI,MALME-3M melanoma,> 100 µM
same,TGI,MCF7 breast,> 100 µM
same,TGI,MDA-MB-231 breast,> 100 µM
same,TGI,MOLT-4 leukemia,> 100 µM
same,TGI,NCI-H226 lung,> 100 µM
same,TGI,NCI-H460 lung,> 100 µM
same,TGI,NCI-H522 lung,> 100000 nM
same,TGI,NCI/ADR-RES ovarian,> 100000 nM
same,TGI,OVCAR-3 ovarian,> 100000 nM
same,TGI,OVCAR-4 ovarian,> 100 µM
same,TGI,OVCAR-5 ovarian,> 100 µM
same,TGI,OVCAR-8 ovarian,> 100 µM
same,TGI,PC-3 prostate,> 100 µM
same,TGI,SF-268 CNS,> 100 µM
same,TGI,SF-295 CNS,> 100 µM
same,TGI,SK-MEL-2 melanoma,> 100000 nM
same,TGI,SK-MEL-5 melanoma,> 100 µM
same,TGI,SK-OV-3 ovarian,> 100 µM
same,TGI,SN12C renal,> 100 µM
same,TGI,SNB-19 CNS,> 100 µM
same,TGI,SNB-75 CNS,> 100000 nM
same,TGI,SR leukemia,> 100000 nM
same,TGI,SW-620 colon,> 100 µM
same,TGI,T-47D breast,> 100 µM
same,TGI,UACC-257 melanoma,> 100 µM
same,TGI,UACC-62 melanoma,> 100 µM
same,TGI,UO-31 renal,> 100 µM
